# Measurements reported in US9802990B2, “Functional peptides for obesity disorders” (DANONE, S.A., priority 2013, dated 2017).
# Where no end group is shown, it is not given here.
# How the values were obtained:
# [1] = In vitro enzymatic digestion model of the digestive tract (pepsin, pancreatin, bile), HPLC; assay type: in vitro ADME
# Description: An in vitro enzymatic digestion model of an in vivo digestive tract was developed for mimicking the physiological conditions to check and certify that each selected peptide was differently degraded throughout the gastro-intestinal tract by the digestive process. Pepsin, pancreatin and bile concentrations were optimized using a published experimental design (Granado-Lorencio et al (2007). J. Agri. Food. Chem., 55, 6387-6394).
# PL (pancreatic lipase) = target: T1, PL (pancreatic lipase) (Sus scrofa, UniProt P00591); test: PL inhibition assay with 4-methyl umbelliferyl oleate (4MUO), fluorescence; assay type: biochemical; details: synthesized peptides
# T1 sequence (P00591 1-450): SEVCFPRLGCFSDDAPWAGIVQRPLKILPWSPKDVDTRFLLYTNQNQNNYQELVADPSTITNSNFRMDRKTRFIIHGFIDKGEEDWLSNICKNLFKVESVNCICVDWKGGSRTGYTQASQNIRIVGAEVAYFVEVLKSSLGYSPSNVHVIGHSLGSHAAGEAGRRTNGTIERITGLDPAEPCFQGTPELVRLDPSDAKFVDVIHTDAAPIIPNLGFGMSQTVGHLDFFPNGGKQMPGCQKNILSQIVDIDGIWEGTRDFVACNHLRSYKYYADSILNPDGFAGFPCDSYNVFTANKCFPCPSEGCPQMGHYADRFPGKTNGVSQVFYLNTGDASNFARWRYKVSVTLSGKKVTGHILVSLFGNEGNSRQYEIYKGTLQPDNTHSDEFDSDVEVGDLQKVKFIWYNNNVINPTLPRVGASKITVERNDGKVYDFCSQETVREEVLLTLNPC
# Protocol: Inhibition of PL was determined using 4-methyl umbelliferyl oleate (4MUO) as substrate as described by Sugiyama et al. (Oligomeric procyanidins in apple polyphenol are main active components for inhibition of pancreatic lipase and triglyceride absorption. J Agric Food Chem (2007); 55: 4604-4609) with some modifications. Aliquots of 25 μl of each peptide extract were incubated with 25 μl of PL solution (1 mg/ml) and preincubated for 10 minutes at 26° C. with stirring of 500 rpm. Reaction was initiated by adding 50 μl of 4MUO (0.1 mM) dissolved in Dulbecco's buffer. After incubation at 26° C. for 20 minutes with constant stirring (500 rpm) the reaction was stopped by adding 100 μl of 0.1 M sodium citrate buffer (pH 4.2). The amount of 4-methyl umbelliferone released by the enzyme was determined by fluorescence. Peptide extracts were used as inhibitors in the enzymatic assay but had to be diluted 1/20 or 1/50 because of the interference between the fluorescence and the buffer containing the peptides.
# [2] = test system: C. elegans wild type strain N2; test: C. elegans body fat reduction, Nile Red staining; assay type: in vivo, Caenorhabditis elegans
# Protocol: The ability to reduce body fat content in the nematode C. elegans was analyzed in a group of 5 peptide extracts previously obtained from glycinin (see Table 4). These samples were selected by their high effect on PL and PLA2 in vitro inhibition. Specifically, 5 peptide extracts were selected from the PLA2 inhibition assay (M20G, M5G, M31G, M27G and M29G). Body fat content was analyzed in the C. elegans wild type strain N2 by Red Nile dying of living nematodes. Experiments were carried out with age-synchronized populations, starting from egg-stage to young adult stage (3-day adults). During the experiments, worms were cultured in the NGM agar plates as control condition, NGM with the corresponding peptide extracts (100 μL/plate) and NGM with 6 μg/mL of Orlistat as positive control. Nile Red was added on top of the NG plates already seeded with Escherichia coli OP50 strain to a final concentration of 0.05 μg/ml. After incubation at 20° C., young adult worms (60 worms per condition) were taken to measure the in vivo fluorescence in a VersaFluor™ Fluorometer System. Fluorescence obtained in treated worms was calculated from fluorescence of worms fed in control conditions (reference sample). Experiments were carried out by duplicate.
# From these purified fractions, a total of 11 peptides were selected to be synthesized and evaluated in vivo in the obesity model of C. elegans (Table 9). All peptides were evaluated at 1 μg/mL of final concentration.
# We selected 5 peptides obtained from hydrolysis of glycinin with strain 6 (P8a, P6a, P14c, P16f, P14b) The peptides from glycinin were added to a soy fermented product (Savia® from Danone) both alone or mixed at final concentration of 1 μg/mL. Nematodes were fed with these products and then total lipids were quantified by Nile Red staining.
# [3] = target: PLA2 (pancreatic phospholipase A2) (Homo sapiens, UniProt P04054); test: PLA2 inhibition assay by HPLC with DOPC as substrate; assay type: biochemical
# Chain of PLA2 (pancreatic phospholipase A2) (P04054 23-148, species assumed): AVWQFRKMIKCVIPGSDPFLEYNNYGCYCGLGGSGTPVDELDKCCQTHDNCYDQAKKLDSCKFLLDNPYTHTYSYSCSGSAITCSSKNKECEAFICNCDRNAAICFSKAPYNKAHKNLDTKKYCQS
# Protocol: Inhibition of PLA2 enzyme was determined by High Performance Liquid Chromatography (HPLC) using 1,2-dioleoyl-sn-glycero-3-phosphocholine (DOPC) as substrate as described by Singh et al. (A rapid isocratic high-performance liquid chromatography method for determination of cholesterol and 1,2-dioleoyl-sn-glycero-3-phosphocholine. Journal of Chromatography (2005); 1073:347-353). Waters 2695 HPLC with Waters 2996 Photodiode detector Array and a C8 column Hypersil BDS (250×4.6 mm, […]) were used carrying out an eluent isocratic method formed by a mixture of ammonium phosphate buffer 50 mM pH 2.7:methanol (15:85, v/v).
sequence,measurement,setting,value
"SVIKPPTD [Peptide P8a, SVIKPPTD]",Degradation (%),[1]; Gastric phase 30 min.,−1.3%
same,Degradation (%),[1]; Gastric phase 120 min.,−1.0%
same,degradation in the in vitro digestion model (in words),"[1]; HPLC, completely degraded = at the beginning of the intestinal phase, resistant ones finally degraded at the end",resistant until the end of the process
same,metabolised at 0.25 h,"[1]; Intestinal phase 15 min., read-out: Degradation (%)",51.2%
same,metabolised at 0.5 h,"[1]; Intestinal phase 30 min., read-out: Degradation (%)",71.6%
same,metabolised at 1 h,"[1]; Intestinal phase 60 min., read-out: Degradation (%)",90.7%
same,metabolised at 2 h,"[1]; Intestinal phase 120 min., read-out: Degradation (%)",100%
same,metabolised at 5 min,"[1]; Oral phase 5 min., read-out: Degradation (%)",1.7%
same,IC50,PL (pancreatic lipase),68.9 µM
same,% Fluorescence Reduction,"[2]; nematodes fed NG with peptides alone or in Savia soy fermented product, alone or mixed, 1 μg/mL final concentration, Nile Red",41.7 ± 4.02%
same,% Fluorescence Reduction C. elegans,[2]; synthesized peptides at 1 μg/mL of final concentration,44.67 ± 10.5%
same,Percentage of PLA2 inhibition,[3]; peptide 0.035 mg/ml,12.7 ± 6.1%
same,Percentage of PLA2 inhibition,[3]; peptide 0.35 mg/ml,12.9 ± 3.9%
same,Percentage of PLA2 inhibition,[3]; peptide 2 mg/ml,26.0 ± 6.4%
same,Percentage of PLA2 inhibition,[3]; peptide 3.5 mg/ml,20.1 ± 7.7%
